Results as given in patent publication EP0032314A1, “Aroylpyrrole derivatives, processes for their preparation and their use” (BEECHAM GROUP PLC, priority 1980, dated 1981).

How the values were obtained:
[1] = tested on: phenylquinone induced mouse writhing; experiment: phenylquinone induced mouse writhing test (analgesic activity); assay type: in vivo; settings: po
Method: Analgesic activity was determined using a conventional phenylquinone induced mouse writhing test.

test animals = settings: in vivo
[2] = reported in J. Pharmacol, Exptl. Therap. 1973, 185, 127-138; cited from earlier work

`CC(=O)CCc1cc(C)c(C(=O)c2ccc(Cl)cc2)n1C` [Example 1, 4-(1,4-dimethyl-p-chlorobenzoyl-2-pyrryl)butan-2-one] gave an ED50 [1] of 6.1 mg/kg.
For `Cc1ccc(C(=O)c2ccc(CC(=O)O)n2C)cc1` [Tolmetin], the gastric irritancy (test animals) is given as “causes gastric irritancy” and the anti-inflammatory activity [2] is given as “possess anti-inflammatory activity”.
